According to PMC6556873, “Rapid Covalent-Probe Discovery by Electrophile-Fragment Screening” (Journal of the American Chemical Society, 2019):
Where two headings read alike, the source gives them in different places.

How the values were obtained:
[1] = biological target: T1, BSA (Bos taurus, UniProt P02769); set-up: Intact protein LC/MS covalent labelling, fragments in pools of five, 200 uM each, 4 °C; settings: 24 h, 4 °C, pool of five; 200 µM; covalent
T1 construct: gene ALB

[2] = biological target: T2, NNMT (hNNMT) (Homo sapiens, UniProt P40261); set-up: Intact protein LC/MS covalent labelling, fragments in pools of five, 200 uM each, 4 °C; settings: 24 h, 4 °C, pool of five; 200 µM; covalent
T2 construct: wild type, N-terminal His6 tag kept (no cleavage described), E. coli, construct 31248 Da
T2 sequence (P40261 1-264): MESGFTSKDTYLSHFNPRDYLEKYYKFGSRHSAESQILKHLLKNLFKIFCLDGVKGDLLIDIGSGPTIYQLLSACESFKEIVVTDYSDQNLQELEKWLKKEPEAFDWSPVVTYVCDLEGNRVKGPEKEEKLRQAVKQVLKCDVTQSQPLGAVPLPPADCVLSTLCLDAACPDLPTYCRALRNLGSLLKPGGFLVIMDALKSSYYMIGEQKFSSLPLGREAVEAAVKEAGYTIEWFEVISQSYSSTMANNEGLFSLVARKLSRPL

[3] = biological target: T3, NUDT7 (Homo sapiens, UniProt P0C024); set-up: Intact protein LC/MS covalent labelling, fragments in pools of five, 200 uM each, 4 °C; settings: 24 h, 4 °C, pool of five; 200 µM; covalent
T3 construct: residues 14-235, E. coli, pNIC28-Bsa4, N-terminal His6 tag removed by TEV, construct 26672 Da

[4] = biological target: T4, OTUB2 (OTUB2A) (Homo sapiens, UniProt Q96DC9); set-up: Intact protein LC/MS covalent labelling, fragments in pools of five, 200 uM each, 4 °C; settings: 24 h, 4 °C, pool of five; 200 µM; covalent
T4 construct: full length residues 1-234, E. coli BL21(DE3)-R3, His tag removed by TEV, construct 27312 Da
T4 sequence (Q96DC9 1-234): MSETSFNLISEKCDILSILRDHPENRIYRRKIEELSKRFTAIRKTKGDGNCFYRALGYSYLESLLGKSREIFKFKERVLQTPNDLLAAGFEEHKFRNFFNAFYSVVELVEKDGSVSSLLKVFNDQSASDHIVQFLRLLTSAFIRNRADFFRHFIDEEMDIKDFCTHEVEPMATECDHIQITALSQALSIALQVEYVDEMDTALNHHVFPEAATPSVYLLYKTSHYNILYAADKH

[5] = biological target: T5, PCAF (Homo sapiens, UniProt Q92831); set-up: Intact protein LC/MS covalent labelling, fragments in pools of five, 200 uM each, 4 °C; settings: 24 h, 4 °C, pool of five; 200 µM; covalent
T5 construct: gene KAT2B

[6] = in vitro; set-up: species or system CCD841, HEK293; settings: human, hb2 cells, read-out: HB-2 Cells Viability (%)
[7] = in vitro; set-up: species or system HB2, HEK293; settings: human, ccd841 cells
[8] = in vitro; set-up: species or system HB2, CCD841; settings: human, hek293 cells

T5 sequence (Q92831 whole entry, the tested form may be a part): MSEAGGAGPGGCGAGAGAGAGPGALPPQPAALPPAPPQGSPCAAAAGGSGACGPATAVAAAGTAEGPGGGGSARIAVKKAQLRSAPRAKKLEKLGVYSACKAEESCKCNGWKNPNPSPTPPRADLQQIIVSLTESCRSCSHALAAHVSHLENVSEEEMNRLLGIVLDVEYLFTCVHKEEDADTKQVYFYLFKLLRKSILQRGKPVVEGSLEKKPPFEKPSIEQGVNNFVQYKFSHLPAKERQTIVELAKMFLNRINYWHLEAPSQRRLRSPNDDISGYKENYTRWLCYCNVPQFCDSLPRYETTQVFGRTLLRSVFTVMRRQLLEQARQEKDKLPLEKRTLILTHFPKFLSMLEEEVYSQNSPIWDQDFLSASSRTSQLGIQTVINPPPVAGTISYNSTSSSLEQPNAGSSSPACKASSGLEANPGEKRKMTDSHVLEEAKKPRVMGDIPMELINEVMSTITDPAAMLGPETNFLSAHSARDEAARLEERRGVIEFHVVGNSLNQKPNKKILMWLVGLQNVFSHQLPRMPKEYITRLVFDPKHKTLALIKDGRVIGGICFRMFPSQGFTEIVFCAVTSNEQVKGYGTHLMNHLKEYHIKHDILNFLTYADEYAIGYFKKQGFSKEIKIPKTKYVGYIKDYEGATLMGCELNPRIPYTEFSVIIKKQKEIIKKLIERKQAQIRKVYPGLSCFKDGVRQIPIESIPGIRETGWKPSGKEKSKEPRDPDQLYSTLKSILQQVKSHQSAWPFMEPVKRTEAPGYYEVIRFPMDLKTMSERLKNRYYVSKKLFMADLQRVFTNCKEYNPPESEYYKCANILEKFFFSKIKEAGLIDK
T3 sequence (P0C024 14-235): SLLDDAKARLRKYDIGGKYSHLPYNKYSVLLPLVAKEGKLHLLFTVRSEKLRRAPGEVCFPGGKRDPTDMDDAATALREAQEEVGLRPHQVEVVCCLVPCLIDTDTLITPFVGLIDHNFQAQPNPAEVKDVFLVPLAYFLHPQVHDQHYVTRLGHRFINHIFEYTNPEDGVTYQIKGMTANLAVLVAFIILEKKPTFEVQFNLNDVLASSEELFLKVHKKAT
T1 sequence (P02769 whole entry, the tested form may be a part): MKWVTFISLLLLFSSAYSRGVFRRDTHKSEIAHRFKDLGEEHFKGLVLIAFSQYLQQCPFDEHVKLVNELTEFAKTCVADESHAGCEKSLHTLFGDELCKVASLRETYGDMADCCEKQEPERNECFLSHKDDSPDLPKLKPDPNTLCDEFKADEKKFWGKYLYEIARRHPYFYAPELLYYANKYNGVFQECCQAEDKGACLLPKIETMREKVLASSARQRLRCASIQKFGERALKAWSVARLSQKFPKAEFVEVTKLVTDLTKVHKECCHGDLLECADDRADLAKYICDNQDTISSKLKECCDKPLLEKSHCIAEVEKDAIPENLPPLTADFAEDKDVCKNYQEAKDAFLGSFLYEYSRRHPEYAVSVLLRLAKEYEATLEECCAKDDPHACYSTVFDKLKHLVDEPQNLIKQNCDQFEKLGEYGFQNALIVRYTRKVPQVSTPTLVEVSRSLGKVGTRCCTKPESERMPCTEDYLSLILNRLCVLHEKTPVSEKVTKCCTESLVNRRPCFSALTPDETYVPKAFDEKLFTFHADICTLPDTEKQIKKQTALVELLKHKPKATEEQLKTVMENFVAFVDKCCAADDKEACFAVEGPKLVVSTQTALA

Row | SMILES | BSA [1] | NNMT [2] | NUDT7 [3] | OTUB2 [4] | PCAF [5] | viability at 48 h, 10 µM [6] [%] | viability at 48 h, 10 µM [7] [%] | viability at 48 h, 10 µM [8] [%]
1 | C=CC(=O)N1CCc2sccc2C1c1cccs1 (stereo not drawn) [PCM-0102640] | 0 | 0 | 0 | 0 | 0 | 97.9 | 115 | 98.7
2 | O=C(CCl)NC(=O)NC1CCCCC1 [PCM-0102692] | 0 | 0.76 | 0 | 0 | 0 | 48.7 | 70.7 | 62.3
3 | O=C(CCl)N(c1ccccc1)C1CCS(=O)(=O)C1 (stereo not drawn) [PCM-0102755] | 0 | 0 | 0.17 | 0 | 0 | 28.5 | 20.4 | 16.7
4 | COc1cc(=O)[nH]c(NC(=O)CCl)n1 [PCM-0102873] | 0.17 | 0 | 0 | 0 | 0 | 99.9 | 100 | 114
5 | C=CC(=O)N1CCC2(CCN(C)C2=O)CC1 [PCM-0102475] | 0 | 0 | 0 | 0 | 0 | 94.8 | 100 | 85.3
6 | C=CC(=O)N1CCN(C2CCCN(C3CCOCC3)C2=O)CC1 (stereo not drawn) [PCM-0102886] | 0 | 0 | 0 | 0 | 0 | 106 | 105 | 104
7 | O=C(CCl)Nc1ccc2c(c1)CCC2 [PCM-0102662] | 0 | 0.22 | 0.12 | 0.14 | 0 | 16.3 | 56.2 | 4.7
8 | C=CC(=O)NC(C)C(=O)N1CCc2ccccc21 (stereo not drawn) [PCM-0102486] | 0 | 0 | 0 | 0 | 0 | 99.8 | 89.6 | 99
9 | Cc1nc(C2(NC(=O)CCl)CCCCC2)no1 [PCM-0102983] | 0 | 0 | 0.1 | 0 | 0 | 102 | 112 | 99.7
10 | O=C(CCl)NCc1cc(Br)cs1 [PCM-0103050] | 0 | 0 | 0.13 | 0.84 | 0 | 87 | 75.7 | 53.1
11 | CCOC(=O)N1CCC(NC(=O)CCl)CC1 [PCM-0102255] | 0 | 0.23 | 0 | 0.24 | 0 | 61.8 | 61.3 | 74.2
12 | O=C(CCl)Nc1cccc(Cl)c1Cl [PCM-0102797] | 0 | 0 | 0.15 | 0 | 0 | 44.2 | 72.2 | 40.9
13 | C=CC(=O)N(C)Cc1c(C)nc2sc(C)cn12 [PCM-0102679] | 0 | 0.32 | 0.06 | 0 | 0 | 103 | 108 | 83.2
14 | COC(=O)c1cc(Cl)cc(Cl)c1NC(=O)CCl [PCM-0102912] | 0.11 | 0.11 | 0.17 | 0 | 0 | 97 | 90.6 | 106
15 | O=C(CCl)NC1CCS(=O)(=O)C1 (stereo not drawn) [PCM-0102138] | 0 | 0 | 0 | 0 | 0 | 92.6 | 84.2 | 113
16 | O=C(CCl)Nc1ccc(F)cc1 [PCM-0103002] | 0 | 0 | 0 | 0.3 | 0 | 68.5 | 71.8 | 35.5
17 | O=C(CCl)N1CCc2ccc([N+](=O)[O-])cc21 [PCM-0102777] | 0 | 0.61 | 0 | 0 | 0 | 1.7 | 2.6 | 17.9
18 | C=CC(=O)N1CCCN(c2ccc(-c3ccccc3)nn2)CC1 [PCM-0102964] | 0 | 0 | 0 | 0 | 0 | 102 | 103 | 87.2
19 | CC(NC(=O)CCl)c1ccco1 (stereo not drawn) [PCM-0102798] | 0 | 0 | 0.14 | 0.19 | 0 | 95.8 | 97.1 | 88.4
20 | O=C(CCl)NCC1CCC1 [PCM-0103065] | 0 | 0 | 0 | 0 | 0 | 104 | 108 | 104
21 | C=CC(=O)N1CCC(C(=O)O)(c2ccccc2)CC1 [PCM-0102459] | 0 | 0 | 0 | 0 | 0 | 103 | 98.8 | 110
22 | Cc1cccc(C(=O)NNC(=O)CCl)c1 [PCM-0102737] | 0 | 0 | 0 | 0.54 | 0 | 82.1 | 80 | 83.7
23 | CNC(=O)c1ccc(NC(=O)CCl)cc1 [PCM-0102267] | 0 | 0 | 0 | 0 | 0 | 20 | 32.5 | 2.2
24 | Cc1ccc(Cn2ccsc2=NC(=O)CCl)cc1 [PCM-0102708] | 0 | 0 | 0.09 | 0 | 0 | 36 | 3 | 7.9
25 | O=C(CCl)NC1CCCC1 [PCM-0102250] | 0 | 0 | 0 | 0 | 0 | 71.9 | 69.1 | 58.7
26 | O=C(CCl)N1CCCC1=O [PCM-0102982] | 0 | 0 | 0 | 0 | 0 | 111 | 101 | 114
27 | N#Cc1oc2ccccc2c1NC(=O)CCl [PCM-0102252] | 0 | 0.34 | 0.37 | 0.86 | 0 | 3.8 | 34.7 | 3.4
